Laboratory results from patent US9850219B1, “Phenothiazine derivatives and methods of use thereof” (Acenda Pharma, Inc., priority 2016, dated 2017).

Experiments:
H441GL = assay: Cytotoxicity, sulforhodamine B (SRB) assay, H441GL; type: cell-based, Human; details: 48 h, NA indicates no activity
Text: (§1) Human non-small cell lung cancer (NSCLC) cell lines (e.g., A549, H441GL and H1299), colon cancer cell lines (e.g., HCT116 and DLD1), breast cancer cell lines (e.g., MCF7 and MDA-MB-231), and pancreatic cancer cell lines (e.g., PANC-1 and SUIT-2) were used in cytotoxicity studies. […] A549 and H441GL are EGFR-wild type adenocarcinoma cell lines. H1299 is an EGFR-wild type large cell carcinoma cell line. HCT116 and DLD1 are metastatic colon cell lines. MCF7 is a hormone-responsive breast cancer cell line. MDA-MB-231 is a triple-negative breast cancer cell line. PANC-1 is a metastatic adenocarcinoma cell line. SUIT-2 is a pancreatic ductal adenocarcinoma cell line.
(§2) All cell lines were grown and maintained in RPMI medium supplemented with 10% fetal bovine serum (FBS, Invitrogen), 2 mM L-glutamine, 100 U/mL penicillin, and 100 μg/mL streptomycin. For cell the culture experiment, stock solution (10 mM) of each test compound was dissolved in dimethyl sulfoxide (DMSO; Sigma).
(§3) Cells were plated in 96-well plates at a density of 2000 cells per well in triplicate. The cells in each well were treated on the third day (to ensure proper plating efficiency and vitality) with different concentrations (0-50 μM) of each test compound for 48 h.
(§4) Cell viability was assessed using the sulforhodamine B (SRB) assay. The medium was discarded, and the adherent cells were fixed by 100 μL of cold 10% trichloroacetic acid (w/v) in each well for 1 h at 4° C. After fixation, cells were stained with 100 μL/well of 0.4% (w/v, in 1% acetic acid) SRB solution for 30 min at room temperature, and then washed 5 times with 1% acetic acid. After air-drying, 100 μL of 10 mM Tris base was added to each well and the absorbance was read at 530 nm. Cytotoxicity is expressed as the percent of cells in drug treated wells relative to number of cells in the solvent only control (set to 100%). Each experiment was performed independently in triplicate and cytotoxicity IC50 value of each test compound was calculated from cytotoxicity data obtained at various concentrations.

A549 = assay: Cytotoxicity, sulforhodamine B (SRB) assay, A549; type: cell-based, Human; details: A549, 48 h, NA indicates no activity
Text: as §1, §2, §3, §4

HCT116 = assay: Cytotoxicity, sulforhodamine B (SRB) assay, HCT116; type: cell-based, human; details: 48 h
Text: (§5) Human non-small cell lung cancer (NSCLC) cell lines (e.g., A549, H441GL and H1299), colon cancer cell lines (e.g., HCT116 and DLD1), breast cancer cell lines (e.g., MCF7 and MDA-MB-231), and pancreatic cancer cell lines (e.g., PANC-1 and SUIT-2) were used in cytotoxicity studies. These NSCLC cell lines have intrinsic resistance to epidermal growth factor receptor (EGFR) inhibitors, e.g., gefitinib. A549 and H441GL are EGFR-wild type adenocarcinoma cell lines. H1299 is an EGFR-wild type large cell carcinoma cell line. HCT116 and DLD1 are metastatic colon cell lines. MCF7 is a hormone-responsive breast cancer cell line. MDA-MB-231 is a triple-negative breast cancer cell line. PANC-1 is a metastatic adenocarcinoma cell line. SUIT-2 is a pancreatic ductal adenocarcinoma cell line.
as §2, §3, §4

DLD1 = assay: Cytotoxicity, sulforhodamine B (SRB) assay, DLD1; type: cell-based, human; details: 48 h
Text: as §5, §2, §3, §4

MCF7 = assay: Cytotoxicity, sulforhodamine B (SRB) assay, MCF7; type: cell-based, human; details: MCF7, Breast, 48 h
Text: as §5, §2, §3, §4

MDA-MB-231 = assay: Cytotoxicity, sulforhodamine B (SRB) assay, MDA-MB-231; type: cell-based, human; details: MDA-MB-231, Breast, 48 h
Text: as §5, §2, §3, §4

PANC-1 = assay: Cytotoxicity, sulforhodamine B (SRB) assay, PANC-1; type: cell-based, human; details: PANC-1, Pancreas, 48 h, NA = no activity
Text: as §5, §2, §3, §4

SUIT-2 = assay: Cytotoxicity, sulforhodamine B (SRB) assay, SUIT-2; type: cell-based, human; details: SUIT-2, Pancreas, 48 h
Text: as §5, §2, §3, §4

lung cancer cells = assay: Cytotoxicity SRB assay, summary of Table 2; type: cell-based, Human; details: summary in words of Table 2
Text: as §5, §3, §4
NA indicates no activity.

H441GL cells [1] = assay: Study 2: tumor size in mouse lung cancer model; type: in vivo, NOD/SCID mice; details: for Tumor Size [Fold Change from Week 3 (Mean ± SD, n = 4)] Week 3 / Tumor Size [Fold Change from Week 3 (Mean ± SD, n = 4)] Week 9 / Tumor Size [Fold Change from Week 3 (Mean ± SD, n = 4)] Week 13: Study 2, 0.0127 mmol/kg daily, i.p.; for Tumor Size [Fold Change from Week 3 (Mean ± SD, n = 4)] Week 3: Week 3 (baseline, start of treatment)
Description: (§6) H441GL cells (1×10^6 cells in 100 μL phosphate-buffered saline/injection) were subcutaneously injected into the right flank of NOD/SCID mice (female, 4-6 weeks old). Mice were allowed 2 weeks for tumor growth. On the first day of Week 3 post injection, tumor-bearing mice were randomly divided into control group (DMSO vehicle, intraperitoneal (i.p.) injection) and test compound treatment groups (5 mg/kg/day, 5 days/week, i.p. injection). Over the period of 10 weeks, tumorigenesis in both groups was measured using a caliper on a weekly basis. The change in tumor size was expressed as in fold change from Week 3. In this study body weight of each mouse was also recorded at the end of each study week.
In this study, the daily dose was 0.0127 mmol/kg instead of 5 mg/kg.

H441GL cells [2] = assay: Study 1: tumor size in mouse lung cancer model; type: in vivo, NOD/SCID mice; details: for Tumor Size [Fold Change from Week 3 (Mean ± SD, n = 4)] Week 3 / Tumor Size [Fold Change from Week 3 (Mean ± SD, n = 4)] Week 9 / Tumor Size [Fold Change from Week 3 (Mean ± SD, n = 4)] Week 13: Study 1, 5 mg/kg/day, 5 days/week, i.p.; for Tumor Size [Fold Change from Week 3 (Mean ± SD, n = 4)] Week 3: Week 3 (baseline, start of treatment)
Description: as §6

H1299 = assay: Cytotoxicity, sulforhodamine B (SRB) assay, H1299; type: cell-based; details: Homo sapiens, NCI-H1299, H1299, 48 h
Text: as §1, §2, §3, §4

[3] = Homo sapiens, HCT-116, HCT116, Colon
[4] = Homo sapiens, DLD-1, DLD1, Colon

Row | Structure (SMILES) | IC50 (H441GL) [µM] | IC50 (A549) [µM] | IC50 (HCT116; HCT116, Colon) [µM] | IC50 (DLD1; DLD1, Colon) [µM] | IC50 (MCF7) [µM] | IC50 (MDA-MB-231) [µM] | IC50 (PANC-1) [µM] | IC50 (SUIT-2) [µM] | inhibition of cell proliferation of lung cancer cells (lung cancer cells) | IC50 (H441GL; Homo sapiens) [µM] | IC50 (A549; Homo sapiens) [µM] | IC50 (H1299) [µM] | IC50 (MCF7; Homo sapiens) [µM] | IC50 (MDA-MB-231; Homo sapiens) [µM] | IC50 (PANC-1; Homo sapiens) [µM] | IC50 (SUIT-2; Homo sapiens) [µM] | other results
1 | COCCOCCOCCN1CCN(CCCN2c3ccccc3Sc3ccc(C(F)(F)F)cc32)CC1 [Compound 4-1b] | 10.5 | 26.3 | 6.5 | 8 | 13.1 | 14.7 | 20 | 13.3 | inhibit cell proliferation |  |  |  |  |  |  |  | 
2 | COCCOCCOCCOCCOCCOCCN1CCN(CCCN2c3ccccc3Sc3ccc(C(F)(F)F)cc32)CC1 [Compound 4-2b] | 6.8 | 21.3 | 6.5 | 13.9 | 13.2 | 15.8 | 10.5 | 15.6 | inhibit cell proliferation |  |  |  |  |  |  |  | effect on tumor growth as compared to the vehicle control (H441GL cells [1]; Study 2, 0.0127 mmol/kg daily i.p., by Week 13, in words): largest effect of suppressing tumor growth; Tumor Size [Fold Change from Week 3 (Mean ± SD, n = 4)] Week 3 (H441GL cells [1]): 1 ± 0 Fold Change; Tumor Size [Fold Change from Week 3 (Mean ± SD, n = 4)] Week 9 (H441GL cells [1]): 9.4 ± 2.6 Fold Change; Tumor Size [Fold Change from Week 3 (Mean ± SD, n = 4)] Week 13 (H441GL cells [1]): 23.3 ± 6.2 Fold Change
3 | COCCOCCOCCOCCOCCOCCOCCOCCOCCOCCOCCOCCN1CCN(CCCN2c3ccccc3Sc3ccc(C(F)(F)F)cc32)CC1 [Compound 4-3b] | 10.5 | 11.5 | 8.4 | 18 | 10.2 | 13.8 | 15.2 | 22 | inhibit cell proliferation |  |  |  |  |  |  |  | Tumor Size [Fold Change from Week 3 (Mean ± SD, n = 4)] Week 3 (H441GL cells [1]): 1 ± 0 Fold Change; Tumor Size [Fold Change from Week 3 (Mean ± SD, n = 4)] Week 9 (H441GL cells [1]): 11.7 ± 2.1 Fold Change; Tumor Size [Fold Change from Week 3 (Mean ± SD, n = 4)] Week 13 (H441GL cells [1]): 30.2 ± 6.2 Fold Change
4 | COCCOCCOCCOC(=O)N1CCN(CCCN2c3ccccc3Sc3ccc(C(F)(F)F)cc32)CC1 [Compound 5-1b, NDT-CO—O—[CH2CH2O]3—CH3] | 3.2 | 3.8 | 10 | 35.9 | 13.6 | 21.6 | 18.2 | 21.4 | inhibit cell proliferation |  |  |  |  |  |  |  | Tumor Size [Fold Change from Week 3 (Mean ± SD, n = 4)] Week 3 (H441GL cells [2]): 1 ± 0 Fold Change; Tumor Size [Fold Change from Week 3 (Mean ± SD, n = 4)] Week 9 (H441GL cells [2]): 28.2 ± 7.4 Fold Change; Tumor Size [Fold Change from Week 3 (Mean ± SD, n = 4)] Week 13 (H441GL cells [2]): 69.8 ± 18.4 Fold Change
5 | COCCOCCOCCOCCOCCOCCOC(=O)N1CCN(CCCN2c3ccccc3Sc3ccc(C(F)(F)F)cc32)CC1 [Compound 5-2b, NDT-CO—O—[CH2CH2O]6—CH3] | 2.7 | 3.2 | 7.3 | 15.2 | 12 | 15.8 | 12.5 | 10.8 | inhibit cell proliferation |  |  |  |  |  |  |  | effect on tumor growth as compared to the vehicle control (H441GL cells [2]; Study 1, 5 mg/kg/day i.p., in words): largest effect of suppressing tumor growth; Tumor Size [Fold Change from Week 3 (Mean ± SD, n = 4)] Week 3 (H441GL cells [2]): 1 ± 0 Fold Change; Tumor Size [Fold Change from Week 3 (Mean ± SD, n = 4)] Week 9 (H441GL cells [2]): 23.4 ± 7.5 Fold Change; Tumor Size [Fold Change from Week 3 (Mean ± SD, n = 4)] Week 13 (H441GL cells [2]): 51.6 ± 17.6 Fold Change
6 | COCCOCCOCCOCCOCCOCCOCCOCCOCCOCCOCCOCCOC(=O)N1CCN(CCCN2c3ccccc3Sc3ccc(C(F)(F)F)cc32)CC1 [Compound 5-3b, NDT-CO—O—[CH2CH2O]12—CH3] | 1.6 | 2.7 | 7.9 | 18.2 | 8.3 | 9.2 | 3.6 | 10.8 | inhibit cell proliferation |  |  |  |  |  |  |  | Tumor Size [Fold Change from Week 3 (Mean ± SD, n = 4)] Week 3 (H441GL cells [2]): 1 ± 0 Fold Change; Tumor Size [Fold Change from Week 3 (Mean ± SD, n = 4)] Week 9 (H441GL cells [2]): 33.4 ± 8.2 Fold Change; Tumor Size [Fold Change from Week 3 (Mean ± SD, n = 4)] Week 13 (H441GL cells [2]): 79.4 ± 20.3 Fold Change
7 | COCC(COCC(COCC(CN1CCN(CCCN2c3ccccc3Sc3ccc(Cl)cc32)CC1)OC)OC)OC (stereo not drawn) [Compound 24a, NDP-[CH2CH(OCH3)CH2O]3—CH3] |  |  |  |  |  |  |  |  | inhibit cell proliferation | 19.1 | 11.7 | 14.2 | 14.5 | 17.6 | 12.4 | 16.1 | 
8 | COCC(COCC(COCC(CN1CCN(CCCN2c3ccccc3Sc3ccc(C(F)(F)F)cc32)CC1)OC)OC)OC (stereo not drawn) [Compound 24b, NDT-[CH2CH(OCH3)CH2O]3—CH3] |  |  |  |  |  |  |  |  | inhibit cell proliferation | 21 | 11.8 | 10.9 | 9.9 | 11.3 | 25.8 | 13.9 | IC50 (HCT116; [3]): 5.9 µM; IC50 (DLD1; [4]): 11.8 µM
9 | COCC(COCC(COCC(COCCOCCOCCN1CCN(CCCN2c3ccccc3Sc3ccc(Cl)cc32)CC1)OC)OC)OC (stereo not drawn) [Compound 25-1a, NDP-[CH2CH2O]n—[CH2CH(OCH3)CH2O]3—CH3] |  |  |  |  |  |  |  |  | inhibit cell proliferation | 13.3 | 12.7 | 13.1 | 14.6 | 12.7 | 16.4 | 13 | Tumor Size [Fold Change from Week 3 (Mean ± SD, n = 4)] Week 3 (H441GL cells [1]): 1 ± 0 Fold Change; Tumor Size [Fold Change from Week 3 (Mean ± SD, n = 4)] Week 9 (H441GL cells [1]): 12.3 ± 2.0 Fold Change; Tumor Size [Fold Change from Week 3 (Mean ± SD, n = 4)] Week 13 (H441GL cells [1]): 31.5 ± 5.4 Fold Change
10 | COCC(COCC(COCC(COCCOCCOCCOCCOCCOCCOCCOCCOCCN1CCN(CCCN2c3ccccc3Sc3ccc(Cl)cc32)CC1)OC)OC)OC (stereo not drawn) [Compound 25-2a, NDP-[CH2CH2O]n—[CH2CH(OCH3)CH2O]3—CH3] |  |  |  |  |  |  |  |  | inhibit cell proliferation | 17.5 | 16.7 | 16.8 | 13.3 | 16.8 | 35.4 | 25.6 | 
11 | COCCOCCOCCOCC(COCC(COCC(CN1CCN(CCCN2c3ccccc3Sc3ccc(C(F)(F)F)cc32)CC1)OC)OC)OC (stereo not drawn) [Compound 26-1b, NDT-[CH2CH(OCH3)CH2O]3—[CH2CH2O]n—CH3] |  |  |  |  |  |  |  |  | inhibit cell proliferation | 12.1 | 14.4 | 20.4 | 10.3 | 6.4 |  | 12.9 | IC50 (HCT116; [3]): 8.5 µM; IC50 (DLD1; [4]): 13.9 µM
